Legend:
Assay type in all cases: functional, Homo sapiens
Set-up in all cases: dose or concentration left out as unconfirmed
Colon cancer organoid [1] = assay: Identification of compartment-specific drug sensitivities in O06 CRC organoid-stroma F06 CAF co-cultures. Organoid is transduced with Lucferase2-P2A-EGFP lentivirus, fibroblast with Renilla-dsRed lentivirus. Dual-Glo Luciferase assay is used to report viability data.
Colon cancer organoid [2] = assay: Identification of compartment-specific drug sensitivities in O20 CRC organoid-stroma F20 CAF co-cultures. Organoid is transduced with Lucferase2-P2A-EGFP lentivirus, fibroblast with Renilla-dsRed lentivirus. Dual-Glo Luciferase assay is used to report viability data.
Colon cancer organoid [3] = assay: Identification of compartment-specific drug sensitivities in O14 CRC organoid-stroma F14 CAF co-cultures. Organoid is transduced with Lucferase2-P2A-EGFP lentivirus, fibroblast with Renilla-dsRed lentivirus. Dual-Glo Luciferase assay is used to report viability data.
[4] = Transduced with Lucferase2-P2A-EGFP lentivirus
[5] = Transduced with Renilla-dsRed lentivirus

Structure (SMILES)	Cell Viability (Colon cancer organoid [1]; [4]) [%]	Cell Viability (Colon cancer organoid [1]; [5]) [%]	Cell Viability (Colon cancer organoid [2]; [4]) [%]	Cell Viability (Colon cancer organoid [2]; [5]) [%]	Cell Viability (Colon cancer organoid [3]; [4]) [%]	Cell Viability (Colon cancer organoid [3]; [5]) [%]
O=C(N[C@H]1CCCCC/C=C\C2C[C@@]2(C(=O)O)NC(=O)[C@@H]2C[C@@H](Oc3ccncc3)CN2C1=O)OC1CCCC1 (stereo not given in full) [BI 1675]	164.286	81.7525	103.036	110.731	118.741	112.641
CCOCCn1cc(C(=O)Nc2ccc(-n3nc(-c4cccnc4)cc3C(F)(F)F)cn2)ccc1=O [BI 1935]	87.0785	88.003	76.3275	148.205	82.3072	94.7961
C[C@H](NC(=O)c1cnc2n1[C@](C)(Cc1ccc(C#N)cc1)C(=O)N2c1cc(Cl)c(F)c(Cl)c1)C(=O)NC1(c2ccccn2)CC1 [BI 1950]	112.036	408.477	121.807	97.0159	98.1816	100.374
CC(C)(C#Cc1ccc(NC(=O)COc2ccccc2C(=O)c2ccccc2)c(Cl)c1)C(=O)O [BI 2439]	97.1512	131.731	147.968	100.148	66.7268	62.0838
Cc1c(NC(=O)COc2ccc(Cl)cc2C(=O)c2cc(F)cc(C(F)(F)F)c2)ccc(C(=O)O)c1F [BI 2540]	104.073	125.125	66.158	145.555	85.0828	72.3222
O=C(NC[C@@H]1[C@H]2CN(C(=O)OCc3cc(C(F)(F)F)cc(C(F)(F)F)c3)C[C@@H]12)c1ccc2[nH]nnc2c1 [BI 2545]	82.8507	98.3684	135.058	115.933	136.863	113.582
Cc1nccc(COC(=O)N2C[C@@H]3[C@@H](CNC(=O)c4ccc5[nH]nnc5c4)[C@@H]3C2)n1 [BI 3017]	143.297	89.1244	107.028	99.2728	148.595	113.357
Cn1nc(C(=O)NCc2ccc(C(=O)O)cc2)cc1-c1ccc2[nH]ccc2c1 [BI 4395]	119.737	69.3241	100.657	92.7545	88.69	99.7693
Cn1c(C2(NC(=O)c3ccc(NCC4CCCCC4)nc3)CCC2)nc2ccc(/C=C/C(=O)O)cc21 [BI 7656]	95.6503	130.646	93.1126	134.723	93.219	83.8542
C[C@@]1(Cc2ccc(C#N)cc2)C(=O)N(c2cc(Cl)cc(Cl)c2)c2ncc(C(=O)NC3(c4nc(C5CCC5)no4)CC3)n21 [BI 9446]	82.5213	98.3986	72.3076	136.535	102.867	111.855
CC(=O)N1CCC(c2ccc(C(=O)NC(=N)N)cc2C(F)(F)F)CC1 [BI 9627]	118.657	157.583	96.0735	101.417	100.11	107.329
CCC(=O)N[C@H]1CC[C@@H](C(=O)N(C)c2ccc(-c3nc4ccccc4o3)cc2)C1 [BI 99179]	14.7827	191.434	33.9891	149.12	77.0742	106.772
CCC(=O)N[C@@H]1CC[C@H](C(=O)N(C)c2ccc(-c3nc4ccccc4o3)cc2)C1 [BI 99990]	102.864	119.997	115.817	121.154	98.8872	100.403
CCS(=O)(=O)c1cc2cc(C[C@](O)(CC(C)(C)c3ccc(F)cc3C(N)=O)C(F)(F)F)[nH]c2cn1 [BI 653048]	70.4743	199.02	85.6205	287.465	130.109	193.347
CC[C@H](CC(=O)O)n1c(=O)c2ncccc2n(Cc2cn(C)c3cc(C)cc(C)c23)c1=O [BI-1942]	119.907	136.619	108.303	100.799	102.331	109.089

From ChEMBL document CHEMBL5608141, “Identification of compartment-specific drug sensitivities in CRC organoid-stroma co-cultures” (2024)
